The results in this text go back to patent US9878986B2, “Compounds for selective histone deacetylase inhibitors, and pharmaceutical composition comprising the same” (CHONG KUN DANG PHARMACEUTICAL CORP., priority 2013, dated 2018).

Each structure is given as a SMILES string.

Assay [1] has as its system histone acetylation (HDAC1) in RPMI8226 cells. Nature of the assay: Acetylation of Histone H3 and Histone H4 in cells by Western blot. The assay is classed as cell-based. The conditions noted are these: 24 hours. The method, then: To determine the selectivity for HDAC6 in cells, the acetylation levels of Tubulin, Histone H3 and Histone H4 depending on the concentration of compounds were measured by Western blot.
RPMI8226 (1.0×10^6 cells/well) cells were seeded on six-well plates and treated with drugs (Compounds 255 and 374) at each concentration. After 24 hours, the proteins were extracted with RIPA buffer and quantified by the Bradford method. 25 μg of protein was lysed in sample buffer, electrophoresed on a 4-12% gradient gel, and then transferred to nitrocellulose membranes for 50 minutes. Then transferred protein was blocked with 5% skim milk for 1 hour. Anti-acetyl H3 (1:2,000), anti-acetyl H4 (1:5,000), anti-acetyl tubulin (1:5,000), and anti-β-actin antibody (1:10,000) were added into 5% skim milk, and the membranes were immersed in the skim milk, reacted at 4° C. for 16 hours, and then washed three times for 10 minutes each with 1×TBS-T. Then, IgG-HRP antibody (1:5,000) was added into 5% skim milk, and then the membranes were immersed in the skim milk, reacted at room temperature for 40 minutes, and then washed three times for […] each with 1×TBS-T. Then, the acetylation levels were determined with a LAS 3000 using ECL solution. […]

In assay [2] the target is T1, HDAC 11 (Homo sapiens, UniProt Q96DB2).
T1 construct: Reaction Biology Corp
T1 sequence (Q96DB2 1-347): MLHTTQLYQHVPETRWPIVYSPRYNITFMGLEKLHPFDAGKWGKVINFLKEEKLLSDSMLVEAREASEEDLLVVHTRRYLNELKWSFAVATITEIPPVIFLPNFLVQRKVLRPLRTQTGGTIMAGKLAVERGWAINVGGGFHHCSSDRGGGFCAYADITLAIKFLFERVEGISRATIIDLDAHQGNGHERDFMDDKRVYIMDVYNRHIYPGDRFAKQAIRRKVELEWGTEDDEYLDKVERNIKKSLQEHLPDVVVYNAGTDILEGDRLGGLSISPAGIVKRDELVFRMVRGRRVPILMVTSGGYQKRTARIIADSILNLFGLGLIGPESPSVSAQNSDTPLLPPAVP
Nature of the assay: HDAC panel by Reaction Biology Corp., HDAC 11. It is filed as biochemical. The conditions noted are these: read-out: HDAC inhibitory activities, HDAC 11. The text has this:
(§1) The inhibitory activities of Compounds 255 and 374 on all HDACs were confirmed (by Reaction Biology Corp.).

For assay [3], the target named is T2, HDAC 6 (Homo sapiens, UniProt Q9UBN7).
T2 sequence (Q9UBN7 1-1215): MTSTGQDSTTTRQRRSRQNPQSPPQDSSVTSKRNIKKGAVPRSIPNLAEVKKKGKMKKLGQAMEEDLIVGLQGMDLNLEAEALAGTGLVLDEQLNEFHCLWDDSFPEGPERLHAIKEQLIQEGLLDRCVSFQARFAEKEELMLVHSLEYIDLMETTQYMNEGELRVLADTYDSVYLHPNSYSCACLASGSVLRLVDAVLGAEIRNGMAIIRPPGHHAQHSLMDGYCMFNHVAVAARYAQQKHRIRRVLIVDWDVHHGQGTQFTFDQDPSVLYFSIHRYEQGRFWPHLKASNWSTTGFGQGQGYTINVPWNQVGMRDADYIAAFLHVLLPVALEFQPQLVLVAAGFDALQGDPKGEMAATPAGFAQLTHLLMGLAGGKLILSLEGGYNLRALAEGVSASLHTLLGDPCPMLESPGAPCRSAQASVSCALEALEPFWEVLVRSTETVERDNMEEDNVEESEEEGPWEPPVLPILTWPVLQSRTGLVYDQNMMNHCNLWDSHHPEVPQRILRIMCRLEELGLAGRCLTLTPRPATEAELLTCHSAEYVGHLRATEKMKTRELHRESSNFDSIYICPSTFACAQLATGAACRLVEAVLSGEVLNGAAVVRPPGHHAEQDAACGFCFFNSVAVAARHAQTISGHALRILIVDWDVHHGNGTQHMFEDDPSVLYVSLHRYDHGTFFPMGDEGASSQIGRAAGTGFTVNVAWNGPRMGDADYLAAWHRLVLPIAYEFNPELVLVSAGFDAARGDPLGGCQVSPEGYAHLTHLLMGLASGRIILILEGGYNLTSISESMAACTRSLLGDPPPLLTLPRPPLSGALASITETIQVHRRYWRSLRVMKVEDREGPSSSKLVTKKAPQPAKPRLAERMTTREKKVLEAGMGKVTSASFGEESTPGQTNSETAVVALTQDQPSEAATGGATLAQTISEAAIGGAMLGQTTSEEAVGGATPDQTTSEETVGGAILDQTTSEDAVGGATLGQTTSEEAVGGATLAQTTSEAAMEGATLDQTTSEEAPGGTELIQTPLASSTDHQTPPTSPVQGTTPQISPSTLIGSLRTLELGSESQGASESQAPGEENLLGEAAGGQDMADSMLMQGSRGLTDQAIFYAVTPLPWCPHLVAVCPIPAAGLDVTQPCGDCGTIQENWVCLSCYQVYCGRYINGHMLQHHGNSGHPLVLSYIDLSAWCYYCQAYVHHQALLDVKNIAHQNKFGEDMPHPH
The experiment in a line: HDAC panel by Reaction Biology Corp., HDAC 6. The conditions noted are these: for IC50: Table 15, Reaction Biology Corp., read-out: HDAC6 inhibitory activity; for Selectivity (HDAC6/1): ratio of the HDAC 1 and HDAC 6 values of Table 15; for selectivity for HDAC6 over HDAC1: text on Table 15. Further details: Reaction Biology Corp. The assay is classed as biochemical.
Source text: as §1

Take `O=C(NO)c1ccc(CN(C(=O)N2CCOCC2)c2cccc(Br)c2)cc1` [Compound 255, N-(3-bromophenyl)-N-(4-(hydroxycarbamoyl)benzyl)morpholine-4-carboxamide]: the “concentration at which histone acetylation (HDAC1) was expressed” value in assay [1] was 1 µM. Moreover, in assay [2], the IC50 amounted to 780 nM. Further, in assay [3], the IC50 amounted to 1 nM, the “Selectivity (HDAC6/1)” value stood at 160 and the “selectivity for HDAC6 over HDAC1” value is recorded as 160 times.

On to `O=C(NO)c1ccc(CN(C(=O)N2CCOCC2)c2cccc(C(F)(F)F)c2)cc1` [Compound 374, N-(4-(hydroxycarbamoyl)benzyl)-N-(3-(trifluoromethyl)phenyl)morpholine-4-carboxamide], for which, in assay [1], the “concentration at which histone acetylation (HDAC1) was expressed” value was 10 µM. For the same molecule, in assay [2], the IC50 was 8420 nM. In assay [3], the IC50 was 5 nM, the “Selectivity (HDAC6/1)” value was determined as 424 and the “selectivity for HDAC6 over HDAC1” value is given as 424 times.
